Reference: patent US11701372B2, “Inhalation formulations of 1'-cyano substituted carba-nucleoside analogs” (priority 2020, dated 2023)
Where “and” joins values, the source holds several entries; their conditions need not be identical. Equal values may be shown once. Read-outs that look alike come from different tables or passages of the source.

Tests used:
[1] = In use testing of reconstituted solutions in IV bags and IV tubings; assay type: physicochemical
Excerpt: The IV bags and IV tubings were sampled over time and tested for % assay/degradation.

[2] = assay type: physicochemical
Description: For each condition, samples were staged at ambient and refrigerated conditions. Samples were analyzed for % assay/degs, appearance, reconstitution time, pH, and compared to T=0. The structures of the key impurities/metabolites are shown below.

With Oc1ccccc1 [Phenol] the “% assay/degradation” value [1] was 0.00 % w/w, the “% assay/degs” value ([2]; pH 1.8) was 0.00% and the “% assay/degs, difference from T = 0” value ([2]; pH 1.8) was 0.00% and 0.04% and 0.08%. For the same compound, the “% assay/degs” value ([2]; pH 2) was 0.00%, the “% assay/degs, difference from T = 0” value ([2]; pH 2) was 0.00% and 0.04% and 0.05% and the “% assay/degs” value ([2]; pH 3.5) was 0.00%. For the same compound, the “% assay/degs, difference from T = 0” value ([2]; pH 3.5) was 0.00%.
In the case of N#C[C@@]1(c2ccc3c(N)ncnn23)O[C@H](COP(=O)(O)Oc2ccccc2)[C@@H](O)[C@H]1O [Compound F], the “% assay/degradation” value ([1]; 30 mg (IV Bag), 2-8° C. 24 h) is reported as 0.07 % w/w, the “% assay/degradation” value ([1]; 30 mg (IV Bag), 2-8° C. 48 h) is reported as 0.06 % w/w and the “% assay/degradation” value ([1]; 30 mg (IV Bag), Ambient 4 h) is reported as 0.06 % w/w. The “% assay/degradation” value ([1]; 30 mg (IV Bag), Ambient 8 h) was 0.07 % w/w, the “% assay/degradation” value ([1]; 30 mg (IV Bag), Ambient 24 h) was 0.08 % w/w and the “% assay/degradation” value ([1]; 30 mg (IV Bag), T = 0 (2-8° C. series)) was 0.06 % w/w. The “% assay/degradation” value ([1]; 30 mg (IV Tube), Ambient 6 Hours) was 0.06 % w/w, the “% assay/degradation” value ([1]; 30 mg in 100 mL 0.9% Saline (IV Bag), T = 0 (Ambient series)) was 0.06 % w/w and the “% assay/degradation” value ([1]; 200 mg (IV Bag), 2-8° C. 24 h) was 0.06 % w/w. The “% assay/degradation” value ([1]; 200 mg (IV Bag), 2-8° C. 48 h) was 0.06 % w/w, the “% assay/degradation” value ([1]; 200 mg (IV Bag), Ambient 4 h) was 0.06 % w/w and the “% assay/degradation” value ([1]; 200 mg (IV Bag), Ambient 8 h) was 0.06 % w/w. For the same compound, the “% assay/degradation” value ([1]; 200 mg (IV Bag), Ambient 24 h) was 0.08 % w/w, the “% assay/degradation” value ([1]; 200 mg (IV Bag), T = 0 (2-8° C. series)) was 0.06 % w/w and the “% assay/degradation” value ([1]; 200 mg (IV Tube), Ambient 6 h) was 0.06 % w/w. For the same compound, the “% assay/degradation” value ([1]; 200 mg in 100 mL 0.9% Saline (IV Bag), T = 0 (Ambient series)) was 0.06 % w/w, the “% assay/degs, difference from T = 0” value ([2]; pH 1.8, 2-8° C., 2 h) was 0.02% and the “% assay/degs, difference from T = 0” value ([2]; pH 1.8, 2-8° C., 3 h) was 0.03%. The “% assay/degs, difference from T = 0” value ([2]; pH 1.8, 2-8° C., 8 h) was 0.08%, the “% assay/degs, difference from T = 0” value ([2]; pH 1.8, 2-8° C., 24 h) was 0.20% and the “% assay/degs, difference from T = 0” value ([2]; pH 1.8, 2-8° C., 48 h) was 0.39%. The “% assay/degs, difference from T = 0” value ([2]; pH 1.8, Ambient, 1 h) was 0.04%, the “% assay/degs, difference from T = 0” value ([2]; pH 1.8, Ambient, 2 h) was 0.08% and the “% assay/degs, difference from T = 0” value ([2]; pH 1.8, Ambient, 3 h) was 0.13%. The “% assay/degs, difference from T = 0” value ([2]; pH 1.8, Ambient, 8 h) was 0.34%, the “% assay/degs, difference from T = 0” value ([2]; pH 1.8, Ambient, 24 h) was 1.05% and the “% assay/degs, difference from T = 0” value ([2]; pH 1.8, Ambient, 48 h) was 2.09%. For the same compound, the “% assay/degs” value ([2]; pH 1.8, T = 0) was 0.08%, the “% assay/degs, difference from T = 0” value ([2]; pH 2.0, 2-8° C., 2 h) was 0.02% and the “% assay/degs, difference from T = 0” value ([2]; pH 2.0, 2-8° C., 3 h) was 0.02%. The “% assay/degs, difference from T = 0” value ([2]; pH 2.0, 2-8° C., 8 h) was 0.06%, the “% assay/degs, difference from T = 0” value ([2]; pH 2.0, 2-8° C., 24 h) was 0.13% and the “% assay/degs, difference from T = 0” value ([2]; pH 2.0, 2-8° C., 48 h) was 0.25%. The “% assay/degs, difference from T = 0” value ([2]; pH 2.0, Ambient, 1 h) was 0.03%, the “% assay/degs, difference from T = 0” value ([2]; pH 2.0, Ambient, 2 h) was 0.05% and the “% assay/degs, difference from T = 0” value ([2]; pH 2.0, Ambient, 3 h) was 0.08%. For the same compound, the “% assay/degs, difference from T = 0” value ([2]; pH 2.0, Ambient, 8 h) was 0.22%, the “% assay/degs, difference from T = 0” value ([2]; pH 2.0, Ambient, 24 h) was 0.68% and the “% assay/degs, difference from T = 0” value ([2]; pH 2.0, Ambient, 48 h) was 1.37%. The “% assay/degs” value ([2]; pH 2.0, T = 0) was 0.06%, the “% assay/degs, difference from T = 0” value ([2]; pH 3.5, 2-8° C., 2 h) was 0.00% and the “% assay/degs, difference from T = 0” value ([2]; pH 3.5, 2-8° C., 8 h) was 0.00%. The “% assay/degs, difference from T = 0” value ([2]; pH 3.5, 2-8° C., 24 h) was 0.00%, the “% assay/degs, difference from T = 0” value ([2]; pH 3.5, 2-8° C., 48 h) was 0.01% and the “% assay/degs, difference from T = 0” value ([2]; pH 3.5, 2-8° C., 72 h) was 0.01%. The “% assay/degs, difference from T = 0” value ([2]; pH 3.5, 2-8° C., 96 h) was 0.02%, the “% assay/degs, difference from T = 0” value ([2]; pH 3.5, 2-8° C., 168 h) was 0.03% and the “% assay/degs, difference from T = 0” value ([2]; pH 3.5, Ambient, 2 h) was 0.00%. The “% assay/degs, difference from T = 0” value ([2]; pH 3.5, Ambient, 8 h) was 0.01%, the “% assay/degs, difference from T = 0” value ([2]; pH 3.5, Ambient, 24 h) was 0.03% and the “% assay/degs, difference from T = 0” value ([2]; pH 3.5, Ambient, 48 h) was 0.05%. For the same compound, the “% assay/degs, difference from T = 0” value ([2]; pH 3.5, Ambient, 72 h) was 0.08%, the “% assay/degs, difference from T = 0” value ([2]; pH 3.5, Ambient, 96 h) was 0.11% and the “% assay/degs, difference from T = 0” value ([2]; pH 3.5, Ambient, 168 h) was 0.19%. For the same compound, the “% assay/degs” value ([2]; pH 3.5, T = 0) was 0.02%, the “% assay/degs, difference from T = 0” value ([2]; pH 3.8, 2-8° C., 7.2 h) was 0.00% and the “% assay/degs, difference from T = 0” value ([2]; pH 3.8, 2-8° C., 24 h) was 0.00%. For the same compound, the “% assay/degs, difference from T = 0” value ([2]; pH 3.8, 2-8° C., 96 h) was 0.01%, the “% assay/degs, difference from T = 0” value ([2]; pH 3.8, 2-8° C., 168 h) was 0.01% and the “% assay/degs, difference from T = 0” value ([2]; pH 3.8, Ambient, 7.2 h) was 0.01%. For the same compound, the “% assay/degs, difference from T = 0” value ([2]; pH 3.8, Ambient, 24 h) was 0.02%, the “% assay/degs, difference from T = 0” value ([2]; pH 3.8, Ambient, 96 h) was 0.06% and the “% assay/degs, difference from T = 0” value ([2]; pH 3.8, Ambient, 168 h) was 0.10%. For the same compound, the “% assay/degs” value ([2]; pH 3.8, T = 0) was 0.02%, the “% assay/degs, difference from T = 0” value ([2]; pH 4.0, 2-8° C., 7.2 h) was 0.00% and the “% assay/degs, difference from T = 0” value ([2]; pH 4.0, 2-8° C., 24 h) was 0.00%. The “% assay/degs, difference from T = 0” value ([2]; pH 4.0, 2-8° C., 96 h) was 0.01%, the “% assay/degs, difference from T = 0” value ([2]; pH 4.0, 2-8° C., 168 h) was 0.01% and the “% assay/degs, difference from T = 0” value ([2]; pH 4.0, Ambient, 7.2 h) was 0.00%. For the same compound, the “% assay/degs, difference from T = 0” value ([2]; pH 4.0, Ambient, 24 h) was 0.01%, the “% assay/degs, difference from T = 0” value ([2]; pH 4.0, Ambient, 96 h) was 0.04% and the “% assay/degs, difference from T = 0” value ([2]; pH 4.0, Ambient, 168 h) was 0.07%. For the same compound, the “% assay/degs” value ([2]; pH 4.0, T = 0) was 0.02%.
